Source: article PMC8333425, “Discovery of a dual Ras and ARF6 inhibitor from a GPCR endocytosis screen” (Nature Communications, 2021)

Tests used:
Test in all cases: KINOMEscan kinase binding assay
[1] = biological target: T1, 384 kinases from the human genome (Homo sapiens, UniProt Q56UN5); details: kinase YSK4 (Entrez MAP3K19)
T1 construct: purchased Eurofin/DiscoverX
Summary of the method: (§1)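 Competition binding (KINOMEscan) across 384 human kinases with compound at 10 µM. Ligand binding was expressed relative to DMSO (100%) as the average of duplicates from one experiment. S(10) selectivity score was derived.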

[2] = biological target: T2, 384 kinases from the human genome (Homo sapiens, UniProt P16591); details: kinase FER (Entrez FER)
T2 construct: purchased Eurofin/DiscoverX
Summary of the method: as §1

[3] = biological target: T3, 384 kinases from the human genome (Homo sapiens, UniProt P37173); details: kinase TGFBR2 (Entrez TGFBR2)
T3 construct: purchased Eurofin/DiscoverX
T3 sequence (P37173 23-567): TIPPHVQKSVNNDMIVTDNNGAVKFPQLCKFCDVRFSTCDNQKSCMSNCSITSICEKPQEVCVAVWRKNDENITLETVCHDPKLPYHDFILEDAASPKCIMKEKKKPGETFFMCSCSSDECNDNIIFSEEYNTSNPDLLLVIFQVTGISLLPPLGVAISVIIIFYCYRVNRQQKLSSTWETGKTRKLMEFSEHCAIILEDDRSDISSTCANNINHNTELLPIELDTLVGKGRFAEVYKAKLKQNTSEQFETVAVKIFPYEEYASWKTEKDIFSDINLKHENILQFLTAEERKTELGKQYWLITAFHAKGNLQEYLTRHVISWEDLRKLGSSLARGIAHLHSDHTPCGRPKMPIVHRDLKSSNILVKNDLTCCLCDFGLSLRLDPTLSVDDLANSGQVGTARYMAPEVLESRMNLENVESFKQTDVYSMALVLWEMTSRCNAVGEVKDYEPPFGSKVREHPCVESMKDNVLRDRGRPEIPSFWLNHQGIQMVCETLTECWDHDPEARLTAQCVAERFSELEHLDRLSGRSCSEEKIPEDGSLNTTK
Summary of the method: as §1

[4] = biological target: T4, 384 kinases from the human genome (Homo sapiens, UniProt Q9BRS2); details: kinase RIOK1 (Entrez RIOK1)
T4 construct: purchased Eurofin/DiscoverX
Summary of the method: as §1

[5] = biological target: T5, 384 kinases from the human genome (Homo sapiens, UniProt P57058); details: kinase HUNK (Entrez HUNK)
T5 construct: purchased Eurofin/DiscoverX
Summary of the method: as §1

[6] = biological target: T6, 384 kinases from the human genome (Homo sapiens, UniProt Q9H093); details: kinase SNARK (Entrez NUAK2)
T6 construct: purchased Eurofin/DiscoverX
Summary of the method: as §1

[7] = biological target: T7, 384 kinases from the human genome (Homo sapiens, UniProt Q05655); details: kinase PRKCD (Entrez PRKCD)
T7 construct: purchased Eurofin/DiscoverX
T7 sequence (Q05655 whole entry): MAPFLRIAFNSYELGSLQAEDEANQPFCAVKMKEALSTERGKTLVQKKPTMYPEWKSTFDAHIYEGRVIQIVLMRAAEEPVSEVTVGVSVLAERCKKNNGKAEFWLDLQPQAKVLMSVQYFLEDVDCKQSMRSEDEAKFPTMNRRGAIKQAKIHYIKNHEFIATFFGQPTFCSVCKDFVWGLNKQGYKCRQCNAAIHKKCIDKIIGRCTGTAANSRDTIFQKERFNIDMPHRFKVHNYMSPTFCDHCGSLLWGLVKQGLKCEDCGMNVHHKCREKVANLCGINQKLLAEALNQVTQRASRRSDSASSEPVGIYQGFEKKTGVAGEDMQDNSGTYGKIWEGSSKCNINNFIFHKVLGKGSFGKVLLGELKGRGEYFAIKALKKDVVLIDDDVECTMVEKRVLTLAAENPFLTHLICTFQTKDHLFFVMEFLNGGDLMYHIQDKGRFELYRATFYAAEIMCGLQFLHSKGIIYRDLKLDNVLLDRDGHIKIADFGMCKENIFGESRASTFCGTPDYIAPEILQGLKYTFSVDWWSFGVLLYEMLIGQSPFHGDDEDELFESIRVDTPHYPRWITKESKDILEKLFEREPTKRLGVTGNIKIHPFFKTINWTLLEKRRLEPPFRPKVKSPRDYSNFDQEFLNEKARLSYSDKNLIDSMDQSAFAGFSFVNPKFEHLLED
Summary of the method: as §1

[8] = biological target: T8, 384 kinases from the human genome (Homo sapiens, UniProt P08581); details: kinase MET (Entrez MET)
T8 construct: purchased Eurofin/DiscoverX
Summary of the method: as §1

[9] = biological target: T9, 384 kinases from the human genome (Homo sapiens, UniProt P49761); details: kinase CLK3 (Entrez CLK3)
T9 construct: purchased Eurofin/DiscoverX
Summary of the method: as §1

[10] = biological target: T10, 384 kinases from the human genome (Homo sapiens, UniProt Q16659); details: kinase ERK3 (Entrez MAPK6)
T10 construct: purchased Eurofin/DiscoverX
Summary of the method: as §1

[11] = biological target: T11, 384 kinases from the human genome (Homo sapiens, UniProt Q86UX6); details: kinase YANK3 (Entrez STK32C)
T11 construct: purchased Eurofin/DiscoverX
Summary of the method: as §1

[12] = biological target: T12, 384 kinases from the human genome (Homo sapiens, UniProt Q13153); details: kinase PAK1 (Entrez PAK1)
T12 construct: purchased Eurofin/DiscoverX
T12 sequence (Q13153 whole entry): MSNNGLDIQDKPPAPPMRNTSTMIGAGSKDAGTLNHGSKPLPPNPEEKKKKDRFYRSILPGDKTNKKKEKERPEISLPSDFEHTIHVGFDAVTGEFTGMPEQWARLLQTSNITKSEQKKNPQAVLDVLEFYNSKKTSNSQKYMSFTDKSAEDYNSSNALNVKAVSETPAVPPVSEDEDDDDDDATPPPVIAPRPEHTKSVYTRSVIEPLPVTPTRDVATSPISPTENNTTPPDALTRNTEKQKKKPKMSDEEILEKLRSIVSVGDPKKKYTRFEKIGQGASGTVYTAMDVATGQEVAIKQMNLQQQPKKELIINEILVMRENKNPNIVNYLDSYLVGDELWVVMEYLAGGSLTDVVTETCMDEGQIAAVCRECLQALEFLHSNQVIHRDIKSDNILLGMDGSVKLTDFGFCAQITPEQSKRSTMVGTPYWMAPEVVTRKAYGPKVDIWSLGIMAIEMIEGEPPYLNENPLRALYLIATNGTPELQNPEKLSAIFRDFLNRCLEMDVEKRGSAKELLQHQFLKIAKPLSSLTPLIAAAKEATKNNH
Summary of the method: as §1

[13] = biological target: T13, 384 kinases from the human genome (Homo sapiens, UniProt P17948); details: kinase FLT1 (Entrez FLT1)
T13 construct: purchased Eurofin/DiscoverX
Summary of the method: as §1

[14] = biological target: T14, 384 kinases from the human genome (Homo sapiens, UniProt Q16288); details: kinase TRKC (Entrez NTRK3)
T14 construct: purchased Eurofin/DiscoverX
Summary of the method: as §1

[15] = biological target: T15, 384 kinases from the human genome (Homo sapiens, UniProt P04626); details: kinase ERBB2 (Entrez ERBB2)
T15 construct: purchased Eurofin/DiscoverX
Summary of the method: as §1

[16] = biological target: T16, 384 kinases from the human genome (Homo sapiens, UniProt Q9Y2H9); details: kinase MAST1 (Entrez MAST1)
T16 construct: purchased Eurofin/DiscoverX
Summary of the method: as §1

[17] = biological target: T17, 384 kinases from the human genome (Homo sapiens, UniProt Q6XUX3); details: kinase RIPK5 (Entrez DSTYK)
T17 construct: purchased Eurofin/DiscoverX
Summary of the method: as §1

[18] = biological target: T18, 384 kinases from the human genome (Homo sapiens, UniProt Q8TDC3); details: kinase BRSK1 (Entrez BRSK1)
T18 construct: purchased Eurofin/DiscoverX
Summary of the method: as §1

[19] = biological target: T19, 384 kinases from the human genome (Homo sapiens, UniProt Q15208); details: kinase NDR1 (Entrez STK38)
T19 construct: purchased Eurofin/DiscoverX
T19 sequence (Q15208 whole entry): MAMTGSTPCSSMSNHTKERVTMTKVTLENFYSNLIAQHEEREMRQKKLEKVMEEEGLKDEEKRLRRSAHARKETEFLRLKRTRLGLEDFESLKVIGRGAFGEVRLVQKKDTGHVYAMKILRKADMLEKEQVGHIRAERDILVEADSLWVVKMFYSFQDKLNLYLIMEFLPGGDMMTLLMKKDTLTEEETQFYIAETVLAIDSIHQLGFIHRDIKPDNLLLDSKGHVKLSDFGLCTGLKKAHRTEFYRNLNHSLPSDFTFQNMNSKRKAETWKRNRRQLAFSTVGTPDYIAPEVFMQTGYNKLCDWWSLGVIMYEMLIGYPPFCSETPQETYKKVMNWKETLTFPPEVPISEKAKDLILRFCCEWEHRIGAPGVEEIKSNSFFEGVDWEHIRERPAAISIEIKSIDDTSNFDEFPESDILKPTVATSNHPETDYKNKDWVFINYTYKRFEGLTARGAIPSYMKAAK
Summary of the method: as §1

[20] = biological target: T20, 384 kinases from the human genome (Homo sapiens, UniProt P0C1S8); details: kinase WEE2 (Entrez WEE2)
T20 construct: purchased Eurofin/DiscoverX
Summary of the method: as §1

[21] = biological target: T21, 384 kinases from the human genome (Homo sapiens, UniProt O94806); details: kinase PRKD3 (Entrez PRKD3)
T21 construct: purchased Eurofin/DiscoverX
Summary of the method: as §1

[22] = biological target: T22, 384 kinases from the human genome (Homo sapiens, UniProt O14936); details: kinase CASK (Entrez CASK)
T22 construct: purchased Eurofin/DiscoverX
Summary of the method: as §1

[23] = biological target: T23, 384 kinases from the human genome (Homo sapiens, UniProt Q8WTQ7); details: kinase GRK7 (Entrez GRK7)
T23 construct: purchased Eurofin/DiscoverX
T23 sequence (Q8WTQ7 whole entry): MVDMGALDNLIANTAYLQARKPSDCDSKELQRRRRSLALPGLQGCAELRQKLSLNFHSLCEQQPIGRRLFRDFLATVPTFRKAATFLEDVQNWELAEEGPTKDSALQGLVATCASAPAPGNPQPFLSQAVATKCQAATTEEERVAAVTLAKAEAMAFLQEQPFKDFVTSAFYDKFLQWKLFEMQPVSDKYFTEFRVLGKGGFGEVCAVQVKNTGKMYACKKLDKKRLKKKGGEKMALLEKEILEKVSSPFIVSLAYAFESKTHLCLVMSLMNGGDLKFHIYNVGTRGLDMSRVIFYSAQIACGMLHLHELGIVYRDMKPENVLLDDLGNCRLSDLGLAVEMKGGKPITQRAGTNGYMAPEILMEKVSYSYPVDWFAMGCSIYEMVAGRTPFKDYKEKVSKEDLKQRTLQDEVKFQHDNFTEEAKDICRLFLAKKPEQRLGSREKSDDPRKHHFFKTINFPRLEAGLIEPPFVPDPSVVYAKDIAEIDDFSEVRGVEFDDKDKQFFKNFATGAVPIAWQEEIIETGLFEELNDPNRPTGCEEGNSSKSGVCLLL
Summary of the method: as §1

[24] = biological target: T24, 384 kinases from the human genome (Homo sapiens, UniProt P51617); details: kinase IRAK1 (Entrez IRAK1)
T24 construct: purchased Eurofin/DiscoverX
Summary of the method: as §1

[25] = biological target: T25, 384 kinases from the human genome (Homo sapiens, UniProt Q9BUB5); details: kinase MKNK1 (Entrez MKNK1)
T25 construct: purchased Eurofin/DiscoverX
Summary of the method: as §1

[26] = biological target: T26, 384 kinases from the human genome (Homo sapiens, UniProt Q13464); details: kinase ROCK1 (Entrez ROCK1)
T26 construct: purchased Eurofin/DiscoverX
T26 sequence (Q13464 whole entry): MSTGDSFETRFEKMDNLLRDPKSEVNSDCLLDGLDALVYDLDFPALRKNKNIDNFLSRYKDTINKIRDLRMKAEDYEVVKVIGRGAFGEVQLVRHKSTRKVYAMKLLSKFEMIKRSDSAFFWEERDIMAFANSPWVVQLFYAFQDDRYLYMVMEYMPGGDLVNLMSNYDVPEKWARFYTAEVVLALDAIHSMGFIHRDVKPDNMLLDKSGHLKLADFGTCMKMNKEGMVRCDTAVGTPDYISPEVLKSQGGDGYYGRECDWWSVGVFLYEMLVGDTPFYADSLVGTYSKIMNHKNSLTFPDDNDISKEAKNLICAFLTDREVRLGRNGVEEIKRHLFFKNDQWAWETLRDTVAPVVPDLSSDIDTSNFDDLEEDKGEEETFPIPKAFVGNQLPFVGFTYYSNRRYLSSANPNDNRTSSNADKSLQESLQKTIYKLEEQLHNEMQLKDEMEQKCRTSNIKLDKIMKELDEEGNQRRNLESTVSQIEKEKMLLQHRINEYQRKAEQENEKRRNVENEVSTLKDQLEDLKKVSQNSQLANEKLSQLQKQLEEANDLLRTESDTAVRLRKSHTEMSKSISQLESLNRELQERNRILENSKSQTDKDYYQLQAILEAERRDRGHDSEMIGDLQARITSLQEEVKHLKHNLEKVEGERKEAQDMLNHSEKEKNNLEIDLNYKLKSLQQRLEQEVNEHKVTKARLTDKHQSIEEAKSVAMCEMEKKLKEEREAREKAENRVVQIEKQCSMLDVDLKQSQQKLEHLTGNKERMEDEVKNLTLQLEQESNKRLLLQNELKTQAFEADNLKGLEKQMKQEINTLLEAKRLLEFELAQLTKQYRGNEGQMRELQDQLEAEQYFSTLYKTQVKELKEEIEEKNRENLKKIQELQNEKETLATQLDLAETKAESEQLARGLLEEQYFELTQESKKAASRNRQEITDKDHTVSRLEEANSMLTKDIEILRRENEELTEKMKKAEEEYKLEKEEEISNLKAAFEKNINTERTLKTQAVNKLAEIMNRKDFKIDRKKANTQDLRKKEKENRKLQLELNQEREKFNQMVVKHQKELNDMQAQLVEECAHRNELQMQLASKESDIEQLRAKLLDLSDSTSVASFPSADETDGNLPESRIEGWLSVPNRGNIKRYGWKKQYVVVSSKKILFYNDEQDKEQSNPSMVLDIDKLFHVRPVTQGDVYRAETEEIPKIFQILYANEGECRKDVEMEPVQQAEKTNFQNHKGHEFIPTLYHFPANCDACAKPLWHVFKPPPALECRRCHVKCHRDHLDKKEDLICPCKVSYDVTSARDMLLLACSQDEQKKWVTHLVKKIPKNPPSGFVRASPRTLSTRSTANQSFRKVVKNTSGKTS
Summary of the method: as §1

[27] = biological target: T27, 384 kinases from the human genome (Homo sapiens, UniProt Q8TDR2); details: kinase STK35 (Entrez STK35)
T27 construct: purchased Eurofin/DiscoverX
T27 sequence (Q8TDR2 whole entry): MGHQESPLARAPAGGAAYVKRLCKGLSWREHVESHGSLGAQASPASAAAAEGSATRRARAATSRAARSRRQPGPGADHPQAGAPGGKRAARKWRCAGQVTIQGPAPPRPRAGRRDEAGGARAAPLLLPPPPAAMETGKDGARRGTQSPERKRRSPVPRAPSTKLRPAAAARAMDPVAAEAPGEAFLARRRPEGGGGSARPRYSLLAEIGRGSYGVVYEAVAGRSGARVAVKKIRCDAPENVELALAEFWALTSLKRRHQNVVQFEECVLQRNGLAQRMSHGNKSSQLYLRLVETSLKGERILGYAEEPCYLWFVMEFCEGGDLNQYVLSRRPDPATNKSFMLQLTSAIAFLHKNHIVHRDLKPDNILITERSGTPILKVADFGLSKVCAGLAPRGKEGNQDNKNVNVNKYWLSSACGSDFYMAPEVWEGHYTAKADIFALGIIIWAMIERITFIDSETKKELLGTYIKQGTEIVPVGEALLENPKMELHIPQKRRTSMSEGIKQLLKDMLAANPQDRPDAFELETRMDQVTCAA
Summary of the method: as §1

CC(C)C(=O)N1CCN(c2ccc(NC(=O)c3cc4ccccc4o3)cc2Cl)CC1 [Compound 21]
Percent Control [1]: 98% | Percent Control [2]: 90% | Percent Control [3]: 99% | Percent Control [4]: 100% | Percent Control [5]: 69% | Percent Control [6]: 96% | Percent Control [7]: 100% | Percent Control [8]: 91% | Percent Control [9]: 100% | Percent Control [10]: 90% | Percent Control [11]: 100% | Percent Control [12]: 92% | Percent Control [13]: 87% | Percent Control [14]: 24% | Percent Control [15]: 75% | Percent Control [16]: 100% | Percent Control [17]: 78% | Percent Control [18]: 99% | Percent Control [19]: 91% | Percent Control [20]: 100% | Percent Control [21]: 98% | Percent Control [22]: 100% | Percent Control [23]: 90% | Percent Control [24]: 99% | Percent Control [25]: 88% | Percent Control [26]: 88% | Percent Control [27]: 100%
